Experimental data reported in patent EP0280239A1, “1,4-Dihydropyridine derivatives, production and use thereof” (SANWA KAGAKU KENKYUSHO CO., LTD., priority 1987, dated 1988).

What was measured:
Type in all cases: in vivo
mongrel dogs [1] = assay: Blood flow increasing action (vertebral and femoral arterial blood flow, blood pressure) in anesthetized dogs; conditions: 1µg/kg, i.v., 5 head
Description: Pharmacological Test Example 1 (Blood flow increasing action)
An experiment was carried out by anesthetizing adult made and female mongrel dogs (weight; 10 to 20kg) with Nembutal (30mg/kg, i.p.) and artificially respiring (20ml/kg/stroke, 20 strokes/min.) the animals.
Right vertebral and femoral arteries were exposed and each probe of electro-magnetic flow meter was fitted therein to measure vertebral and femoral arterial blood flows. A cannula was inserted into descending aorta from left femoral artery, in order to measure blood pressure by a pressure transducer connected to an amplifier. Each of test compounds dissolved in 50% ethanol solution (1µg/kg, i.v.) was administered from the cannula into cephlic vein.
Further, an amount of the compound required to increase the vertebral arterial blood flow by 50% was checked to obtain results shown in following Table 2, wherein the amount is given as ED₅₀ (µg/kg).

[2] = system: spontaneously hypertensive rats; assay: Blood pressure depressing action in spontaneously hypertensive rats; conditions: male spontaneously hypertensive rats, oral, 3.0 mg/kg, N=6; for systric pressure of median sacral artery, change at 1 hr (%): 1 hr after administration; for systric pressure of median sacral artery, change at 2 hr (%): 2 hr after administration; for systric pressure of median sacral artery, change at 4 hr (%): 4 hr after administration; for systric pressure of median sacral artery, change at 6 hr (%): 6 hr after administration; for systric pressure of median sacral artery, change at 24 hr (%): 24 hr after administration
Description: Pharmacological Test Example 2 (Blood pressure depressing action)

mongrel dogs [3] = assay: Blood flow increasing action (vertebral and femoral arterial blood flow, blood pressure) in anesthetized dogs; conditions: Canis lupus familiaris, iv, read-out: ED50, i.v. (amount required to increase the vertebral arterial blood flow by 50%)

Row | Compound | Change (%) DBP (Diastolic blood pressure) (mongrel dogs [1]) | Change (%) FABF (Femoral arteial blood flow) (mongrel dogs [1]) | Change (%) VABF (Vertebral arterial blood flow) (mongrel dogs [1]) | systric pressure of median sacral artery, change at 1 hr (%) [2] | systric pressure of median sacral artery, change at 2 hr (%) [2] | systric pressure of median sacral artery, change at 4 hr (%) [2] | systric pressure of median sacral artery, change at 6 hr (%) [2] | systric pressure of median sacral artery, change at 24 hr (%) [2] | ED50 (mongrel dogs [3])
1 | CC1=C(C(=O)OCCN(C)Cc2ccc(Cl)cc2Cl)C(c2cccc([N+](=O)[O-])c2)C(C(=O)OCC2CC2)=C(C)N1 (centres unmarked) [Example 1, 3-Cyclopropylmethyl 5-[2-[N-(2,4-dichlorobenzyl)-N-methylamino]-ethyl]1.4-dihydro-2,6-dimethyl-4-(3-nitrophenyl)-pyridine-3,5-dicarboxylate] | -7 ± 1% | 23 ± 7% | 90 ± 17% | -33.3±6.57% | -35.2±4.12% | -34.0±2.42% | -32.8±2.72% | -13.0±5.94% | 1.1 µg/kg
2 | CC1=C(C(=O)OCCN2Cc3ccc(Cl)cc3C2)C(c2cccc([N+](=O)[O-])c2)C(C(=O)OCC2CC2)=C(C)N1 (centres unmarked) [Example 2, 3-[2-(5-Chloroisoindolin-2-yl)ethyl] 5-cyclopropymethyl 1.4-dihydro-2,6-dimethyl-4-(3-nitrophenyl)-pyridine-3,5-dicarboxylate] | -7 ± 2% | 23 ± 8% | 40 ± 6% | -3.0±1.47% | -9.0±2.82% | -13.2±6.15% | -21.4±3.67% | -14.3±4.09% | 1.6 µg/kg
3 | COC(=O)C1=C(C)NC(C)=C(C(=O)OCCN(C)Cc2ccccc2)C1c1cccc([N+](=O)[O-])c1 (centres unmarked) [Nicardipine, 1,4-dihydro-2,6-dimethyl-4-(3-nitrophenyl)pyridine-3,5-dicarboxylic acid 3-2-(N-benzyl-N-methylamino)ethyl 5-methyl ester, reference compound] | -10 ± 1% | 14 ± 5% | 32 ± 7% | -10.0±2.28% | -5.7±1.61% | -3.0±2.01% | -1.0±1.50% | -4.2±1.88% | 4.2 µg/kg
4 | COC(=O)C1=C(C)NC(C)=C(C(=O)OC)C1c1ccccc1[N+](=O)[O-] [Nifedipine, dimethyl ester of 1,4-dihydro-2,6-dimethyl-4-(2-nitrophenyl)pyridine-3,5-dicarboxylic acid, reference compound] |  |  |  | -19.3±4.41% | -10.6±3.14% | -4.3±2.70% | -0.1±1.56% | -1.1±1.06% | 
